Source: patent US5906831A, “Controlled release composition forming a reversed micellar (L2) structure or a normal micellar (L1) structure” (GS Development AB, priority 1994, dated 1999)

Assays:
[1] = visual inspection of mixtures of monocaproin with polar solvents (miscibility); format: physicochemical
Text: Many galenic formulations of drugs contain polar solvents.

[2] = diluted water solution; cited from earlier work
[3] = all compositions, in water; cited from earlier work

Appearance ([1]; 5% Ethanol / 5% Propylene Glycol (w/w), 90% monocaproin): clear, low viscous | Appearance ([1]; 10% (w/w) Ethanol, 90% monocaproin): clear, low viscous | Appearance ([1]; 10% (w/w) Propylene Glycol, 90% monocaproin): clear, low viscous | Appearance ([1]; 90% (w/w) Ethanol, 10% monocaproin): clear, low viscous
Structure (SMILES): CCCCCC(=O)OCC(O)CO (stereo not drawn) [monocaproin, glycerolmonohexanoate]
critical micellar concentration (cmc) [2]: 160 mM | phase behaviour of aqueous system [3]: one single liquid phase at all compositions
